Laboratory results: US9309285B2, “Macrocyclic broad spectrum antibiotics” (priority 2012, dated 2016)
Like-named read-outs stand apart in the source and are kept apart here. Positions of bridges follow the written chain, without caps; N, C: chain ends. Non-standard residues stand in square brackets, D forms with d. Residues, ends and D or L forms follow the SMILES beside them. *: point of attachment. boroAla((+)-pinanediol) = C[C@H](N*)B1O[C@@H]2C[C@@H]3C[C@@H](C3(C)C)[C@]2(C)O1; Biphenylcarbonyl(4'-Bu) = CCCCc1ccc(-c2ccc(C(=O)*)cc2)cc1; Aad = N[C@@H](CCCC(=O)O)C(=O)O; Orn = NCCC[C@H](N)C(=O)O

Legend:
S. aureus SPase = target: T1, S. aureus SPase (Staphylococcus aureus, UniProt P0A070); test: SPase enzyme inhibition assay, fluorogenic peptide substrate, S. aureus; type: biochemical
T1 construct: Full length His-tagged E. coli and S. aureus SPase proteins were expressed in E. coli BL21; His tag; made in house; host or cells: E. coli BL21 (DE3)
T1 sequence (P0A070 1-191): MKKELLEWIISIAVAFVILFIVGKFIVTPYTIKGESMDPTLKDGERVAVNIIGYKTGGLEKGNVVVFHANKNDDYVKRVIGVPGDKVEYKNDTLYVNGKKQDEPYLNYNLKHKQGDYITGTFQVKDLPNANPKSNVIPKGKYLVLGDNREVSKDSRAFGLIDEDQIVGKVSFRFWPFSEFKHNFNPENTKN
Experimental: (§1) Briefly, for expression of E. coli SPase, saturated overnight cultures grown in 20 ml of Luria-Bertani medium supplemented with ampicillin were subcultures into 1.5 L of Luria-Bertani, and shaken at 37° C. until an optical density at 600 nm of 0.4-0.5 was achieved. […] S. aureus SPase was expressed and purified similarly, with the following exceptions. […] Resin bound protein was washed in a similar buffer containing 1% Elugent in place of Triton X-100 prior to protein elution in wash buffer supplemented with 300 mM imidazole. […] All protein concentrations were determined by BCA assay.
(§2) Enzyme master solution was prepared by diluting Escherichia coli or Staphylococcus aureus SPase protein into reaction buffer to a final concentration of 3 nM or 10 nM respectively. Reaction buffer consisted of 20 mM NaKHPO4 pH 7.4, 100 mM NaCl, and 1% v/v Elugent™ detergent. Reactions were initiated by the addition of substrate to a final concentration of 20 μM. Reaction progress was monitored by measuring the increase in fluorescence signal (excitation at 314 nm, emission at 416 nm) using a SpectraMax M2 fluorescence microplate reader. […] Three-folder serial dilutions of test compounds, starting at 10 μM, were prepared in enzyme mix solution and incubated at room temperature for 10 minutes. Following this incubation, fluorogenic substrate was added to a final concentration of 20 μM and the increase in fluorescence, corresponding to substrate cleavage, was monitored continuously at room temperature for 1 hour. Initial reaction rates were calculated based on the rate of increase in fluorescence during the reaction. Reaction rates were plotted as a function of compound concentration, and IC50 values were determined nonlinear regression analysis (SoftMaxPro 5.4, Molecular Devices™) of the sigmoidal dose-response curve.

E. coli SPase = target: T2, E. coli SPase (Escherichia coli, UniProt P00803); test: SPase enzyme inhibition assay, fluorogenic peptide substrate, E. coli; type: biochemical
T2 construct: Full length His-tagged E. coli and S. aureus SPase proteins were expressed in E. coli BL21; His tag; made in house; host or cells: E. coli BL21 (DE3)
Experimental: as §1, §2

[1] = tested on: Methicillin Resistant Staphylococcus aureus strain USA 300 (NRS384); test: MIC by broth micro-dilution (CLSI), S. aureus; type: cell-based; conditions: Staphylococcus aureus, MRSA / NRS 384 / USA300; MRSA USA 300 (NRS384); cation adjusted Mueller Hinton Broth + 0.002% Tween-80; 35° C., 22 hours; read-out: MIC (μg/mL) S. aureus
Experimental: In vitro antimicrobial activity of each compound was determined by measuring minimal inhibitor concentrations (MICs) using the broth micro-dilution technique as approved by the Clinical and Laboratory Standards Institute (CLSI) (Methods for Dilution Antimicrobial Susceptibility Tests for Bacteria that Grow Aerobically; Approved Standard—Eighth Edition. CLSI document M07-A8. Wayne, Pa.: Clinical and Laboratroy Standards; 2009). Antibacterial activity was measure against two strains of bacteria: a Methicillin Resistant Staphylococcus aureus strain USA 300 (NRS384) and a strain of Escherichia coli MC4100 harboring the IMP4213, which results in increased outer-membrane permeability (B Martin and Silhavy T. Imp/OstA is required for cell envelope biogenesis in Escherichia coli. (2002) Molecular Microbiology, 45(5), 1289-1302). Cells were inoculated onto plates of Trypyticase Soy Agar or Luria Agar respectively and grown at 35° C. for 20 hours. Inocula suspensions were prepared by scraping cells into 1 ml of testing media (cation adjusted Mueller Hinton Broth supplemented with 0.002% v/v Tween-80) and diluting to a final OD600 nm of 0.01.
Test compounds were prepared in DMSO at a concentration of 10 mg/ml. These compound stocks were diluted into testing media at a concentration of 64 μg/ml and serial 2-fold dilutions were made in the same media, in 96-well U bottom microtiter dishes, for a total of 10 compound concentrations. Inocula suspensions were added to the 2-fold serial dilutions of test compounds to a final density of OD OD600 nm of 0.0005 and incubated at 35° C. for 22 hours.

[2] = 3 nM E. coli SPase, 20 μM substrate, 10 minutes pre-incubation, room temperature, read-out: IC 50 (nM) E. coli

T2 sequence (P00803 whole entry): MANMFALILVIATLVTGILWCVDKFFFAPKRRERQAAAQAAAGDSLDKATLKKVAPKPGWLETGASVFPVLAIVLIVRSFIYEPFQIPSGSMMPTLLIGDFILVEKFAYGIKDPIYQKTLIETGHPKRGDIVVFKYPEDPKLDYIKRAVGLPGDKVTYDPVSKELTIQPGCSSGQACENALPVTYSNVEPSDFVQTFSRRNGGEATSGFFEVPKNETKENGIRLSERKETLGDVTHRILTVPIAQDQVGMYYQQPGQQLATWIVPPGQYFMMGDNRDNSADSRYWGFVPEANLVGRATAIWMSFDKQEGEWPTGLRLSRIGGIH

Compound	IC50 (S. aureus SPase) [nM]	IC50 (E. coli SPase; [2]) [nM]	MIC [1] [µg/mL]	IC50 (E. coli SPase) [nM]
CCCCCCCCCCCCCC(=O)N[C@@H](CCCCN)C(=O)N(C)[C@@H]1C(=O)N[C@@H](C)C(=O)N[C@H](C(=O)N[C@@H](C)B(O)O)Cc2ccc(O)c(c2)-c2cc1ccc2O [Compound 119]	33	8.6	–	–
CCCCc1ccc(-c2ccc(C(=O)N[C@@H](CCCCN)C(=O)N(C)[C@@H]3C(=O)N[C@@H](C)C(=O)N[C@H](C(=O)N[C@@H](C)B4O[C@@H]5C[C@@H]6C[C@@H](C6(C)C)[C@]5(C)O4)CCCCc4cc3ccc4OC)cc2)cc1 [Compound 209]	3700	–	4	84
CCCCCCCCCCCCCC(=O)N[C@@H](CCCCN)C(=O)N(C)[C@@H]1C(=O)N[C@@H](C)C(=O)N[C@H](C(=O)NCB(O)O)Cc2ccc(O)c(c2)-c2cc1ccc2O [Compound 118]	31	7.6	–	–
C[C@@H]1NC(=O)[C@@H](N(C)C(=O)[C@H](CCCCN)NC(=O)c2ccc(-c3ccc(Cl)cc3)cc2)c2ccc(O)c(c2)-c2cc(ccc2O)C[C@@H](C(=O)O)NC1=O [Compound 127]	440	1.4	–	–
CCCCc1ccc(-c2ccc(C(=O)N[C@@H](CCCCN)C(=O)N(C)[C@@H]3C(=O)N[C@@H](C)C(=O)N[C@H](C(=O)O)Cc4ccc(O)c(c4)-c4cc3ccc4O)cc2)cc1 [Compound 110]	350	1.4	–	–
CCCCc1ccc(-c2ccc(C(=O)NC(CCCCN)C(=O)N[C@H]3COCCCCOC[C@@H](C(=O)N[C@@H](C)B4O[C@@H]5C[C@@H]6C[C@@H](C6(C)C)[C@]5(C)O4)NC(=O)[C@H](C)NC3=O)cc2)cc1 (mixture of isomers) [Compound 206]	600	81	4	–
CCCCCCCC(=O)NCCC(=O)N[C@@H](CCCCN)C(=O)N(C)[C@@H]1C(=O)N[C@@H](C)C(=O)N[C@H](C(=O)N[C@@H](C)C(N)=O)Cc2ccc(O)c(c2)-c2cc1ccc2O [Compound 129]	140	370	–	–
CCCCCCCC(=O)NCCC(=O)N[C@@H](CCCCN)C(=O)N(C)[C@@H]1C(=O)N[C@@H](C)C(=O)N[C@H](C(=O)N[C@@H](C)B2O[C@@H]3C[C@@H]4C[C@@H](C4(C)C)[C@]3(C)O2)Cc2ccc(O)c(c2)-c2cc1ccc2O [Compound 123]	18	20	64	–
CCCCc1ccc(-c2ccc(C(=O)NCC(C)C(=O)N[C@@H](CCCCN)C(=O)N(C)[C@@H]3C(=O)N[C@@H](C)C(=O)N[C@H](C(=O)O)Cc4ccc(O)c(c4)-c4cc3ccc4O)cc2)cc1 (mixture of isomers) [Compound 104]	12	3.7	4	–
CCCCCCCC(=O)N[C@@H](CCCCN)C(=O)N(C)[C@@H]1C(=O)N[C@@H](C)C(=O)N[C@H](C(=O)N[C@@H](C)B2O[C@@H]3C[C@@H]4C[C@@H](C4(C)C)[C@]3(C)O2)Cc2ccc(O)c(c2)-c2cc1ccc2O [Compound 125]	64	26	23	–
CCCCCCCC(=O)NCCC(=O)N[C@@H](CCCCN)C(=O)N(C)[C@@H]1C(=O)N[C@@H](C)C(=O)N[C@H](C(=O)N[C@@H](C)C(=O)N2CCC[C@H]2C(N)=O)Cc2ccc(O)c(c2)-c2cc1ccc2O [Compound 131]	3.3	180	–	–
CCCCCCCC(=O)N[C@@H](CCCCN)C(=O)N(C)[C@@H]1C(=O)N[C@@H](C)C(=O)N[C@H](C(=O)O)Cc2ccc(O)c(c2)-c2cc1ccc2O [Compound 124]	1000	23	–	–
CCCCc1ccc(-c2ccc(C(=O)N[C@@H](CCCCN)C(=O)N(C)[C@@H]3C(=O)N[C@@H](C)C(=O)N[C@H](C(=O)N[C@@H](C)B4O[C@@H]5C[C@@H]6C[C@@H](C6(C)C)[C@]5(C)O4)CCCCCc4cc3ccc4OC)cc2)cc1 [Compound 208]	> 10000	680	–	–
CCCCCCCC(=O)NCCC(=O)N[C@@H](CCCCN)C(=O)N(C)[C@@H]1C(=O)N[C@@H](C)C(=O)N[C@H](C(=O)O)Cc2ccc(O)c(c2)-c2cc1ccc2O [Compound 122]	130	27	–	–
CCCCCCCC(=O)NCCC(=O)N[C@@H](CCCCN)C(=O)N(C)[C@@H]1C(=O)N[C@@H](C)C(=O)N[C@H](C(N)=O)Cc2ccc(O)c(c2)-c2cc1ccc2O [Compound 130]	580	160	–	–
CNC(=O)[C@@H]1CCCN1C(=O)[C@H](C)NC(=O)[C@@H]1Cc2ccc(O)c(c2)-c2cc(ccc2O)[C@H](N(C)C(=O)[C@H](CCCCN)NC(=O)c2ccc(-c3ccc(Cl)cc3)cc2)C(=O)N[C@@H](C)C(=O)N1 [Compound 136]	47	44	–	–
CCCCc1ccc(-c2ccc(C(=O)NC[C@@H](C)C(=O)N[C@@H](CCCCN)C(=O)N(C)[C@@H]3C(=O)N[C@@H](C)C(=O)N[C@H](C(=O)N[C@@H](C)C(=O)N4CCC[C@H]4C(N)=O)Cc4ccc(O)c(c4)-c4cc3ccc4O)cc2)cc1 [Compound 138]	78	30	–	–
CCCCc1ccc(-c2ccc(C(=O)NC[C@@H](C)C(=O)N[C@@H](CCCCN)C(=O)N(C)[C@@H]3C(=O)N[C@@H](C)C(=O)N[C@H](C(=O)N[C@@H](C)B4OC5C[C@@H]6C[C@@H](C6(C)C)[C@]5(C)O4)Cc4ccc(O)c(c4)-c4cc3ccc4O)cc2)cc1 (some centres unmarked) [Compound 120]	220	18	–	–
CCCCCCCCCCCCCC(=O)N[C@@H](CCCCN)C(=O)N(C)[C@@H]1C(=O)N[C@@H](C)C(=O)N[C@H](C(=O)O)Cc2ccc(O)c(c2)-c2cc1ccc2O [Compound 111]	160	2.2	–	–
CCCCc1ccc(-c2ccc(C(=O)N[C@@H](CCCCN)C(=O)N[C@H]3CCCC(=O)NCCCC[C@@H](C(=O)N[C@@H](C)B4O[C@@H]5C[C@@H]6C[C@@H](C6(C)C)[C@]5(C)O4)NC(=O)[C@H](C)NC3=O)cc2)cc1 [Compound 203] ({Biphenylcarbonyl(4'-Bu)}-K[Aad]AK-{boroAla((+)-pinanediol)}; lactam 2-4)	81	8.9	–	–
CCCCc1ccc(-c2ccc(C(=O)N[C@@H](CCCCN)C(=O)N[C@H]3CCC(=O)NCCC[C@@H](C(=O)N[C@@H](C)B4O[C@@H]5C[C@@H]6C[C@@H](C6(C)C)[C@]5(C)O4)NC(=O)[C@H](C)NC3=O)cc2)cc1 [Compound 202] ({Biphenylcarbonyl(4'-Bu)}-KEA[Orn]-{boroAla((+)-pinanediol)}; lactam 2-4)	200	28	–	–
C[C@@H]1NC(=O)[C@@H](N(C)C(=O)[C@H](CCN)NC(=O)c2ccc(-c3ccc(Cl)cc3)cc2)c2ccc(O)c(c2)-c2cc(ccc2O)C[C@@H](C(=O)O)NC1=O [Compound 128]	3500	1.5	–	–
CCCCc1ccc(-c2ccc(C(=O)N[C@@H](CCCCN)C(=O)N[C@H]3CCC(=O)NCCCC[C@@H](C(=O)N[C@@H](C)B4O[C@@H]5C[C@@H]6C[C@@H](C6(C)C)[C@]5(C)O4)NC(=O)[C@H](C)NC3=O)cc2)cc1 [Compound 201] ({Biphenylcarbonyl(4'-Bu)}-KEAK-{boroAla((+)-pinanediol)}; lactam 2-4)	150	15	–	–
C[C@@H]1NC(=O)[C@@H](N(C)C(=O)[C@H](CCCCN)NC(=O)c2ccc(-c3ccc(Cl)cc3)cc2)c2ccc(O)c(c2)-c2cc(ccc2O)C[C@@H](C(=O)N[C@@H](C)C(=O)N(C)C)NC1=O [Compound 137]	3100	350	–	–
